Source: the supplement of paper PMC11665569

Assays:
Assay in all cases: relative viability (fraction of vehicle control); higher = more viable / less inhibited
Settings in all cases: treatment time: 5 days
SW1573 = test system: SW1573
Description: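 CCK-8 viability of SW1573 cells transfected with control, YAP/TAZ or TEAD1-4 siRNAs and treated with KRAS G12C inhibitors for 5 days. Values are normalised to vehicle control.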

H2030 = test system: H2030
Description: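 CCK-8 viability of H2030 cells transfected with control, YAP/TAZ or TEAD1-4 siRNAs and treated with KRAS G12C inhibitors for 5 days. Values are normalised to vehicle control.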

H358 = test system: H358
Description: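 CCK-8 viability of H358 cells with empty vector or constitutively active YAP S127A, treated with KRAS G12C inhibitors for 5 days. Absorbance at 450 nm normalised to vehicle control.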

C=CC(=O)N1CCN(c2nc(=O)n(-c3c(C)ccnc3C(C)C)c3nc(-c4c(O)cccc4F)c(F)cc23)[C@@H](C)C1 [AMG510]
relative viability
Settings	H358	H2030	SW1573
log10 concentration (uM): 0, ectopic expression: YAP S127A	0.42	–	–
log10 concentration (uM): 0, ectopic expression: empty vector (YAP experiment)	0.15	–	–
log10 concentration (uM): 0, siRNA knockdown: TEAD1-4 siRNA 1	–	0.446	0.313
log10 concentration (uM): 0, siRNA knockdown: TEAD1-4 siRNA 2	–	0.411	0.433
log10 concentration (uM): 0, siRNA knockdown: YAP/TAZ siRNA 1	–	0.25	0.262
log10 concentration (uM): 0, siRNA knockdown: YAP/TAZ siRNA 2	–	0.224	0.182
log10 concentration (uM): 0, siRNA knockdown: negative control siRNA	–	0.714	0.809
log10 concentration (uM): 1, ectopic expression: YAP S127A	0.46	–	–
log10 concentration (uM): 1, ectopic expression: empty vector (YAP experiment)	0.183	–	–
log10 concentration (uM): 1, siRNA knockdown: TEAD1-4 siRNA 1	–	0.345	0.397
log10 concentration (uM): 1, siRNA knockdown: TEAD1-4 siRNA 2	–	0.325	0.515
log10 concentration (uM): 1, siRNA knockdown: YAP/TAZ siRNA 1	–	0.257	0.554
log10 concentration (uM): 1, siRNA knockdown: YAP/TAZ siRNA 2	–	0.283	0.357
log10 concentration (uM): 1, siRNA knockdown: negative control siRNA	–	0.56	0.782
log10 concentration (uM): 1.301029996, ectopic expression: YAP S127A	0.327	–	–
log10 concentration (uM): 1.301029996, ectopic expression: empty vector (YAP experiment)	0.172	–	–
log10 concentration (uM): 1.301029996, siRNA knockdown: TEAD1-4 siRNA 1	–	0.193	0.138
log10 concentration (uM): 1.301029996, siRNA knockdown: TEAD1-4 siRNA 2	–	0.209	0.288
log10 concentration (uM): 1.301029996, siRNA knockdown: YAP/TAZ siRNA 1	–	0.148	0.337
log10 concentration (uM): 1.301029996, siRNA knockdown: YAP/TAZ siRNA 2	–	0.179	0.257
log10 concentration (uM): 1.301029996, siRNA knockdown: negative control siRNA	–	0.403	0.461
log10 concentration (uM): -1, ectopic expression: YAP S127A	0.453	–	–
log10 concentration (uM): -1, ectopic expression: empty vector (YAP experiment)	0.256	–	–
log10 concentration (uM): -1, siRNA knockdown: TEAD1-4 siRNA 1	–	0.504	0.338
log10 concentration (uM): -1, siRNA knockdown: TEAD1-4 siRNA 2	–	0.556	0.365
log10 concentration (uM): -1, siRNA knockdown: YAP/TAZ siRNA 1	–	0.181	0.164
log10 concentration (uM): -1, siRNA knockdown: YAP/TAZ siRNA 2	–	0.181	0.111
log10 concentration (uM): -1, siRNA knockdown: negative control siRNA	–	0.737	0.783
log10 concentration (uM): -1.30103, ectopic expression: YAP S127A	0.52	–	–
log10 concentration (uM): -1.30103, ectopic expression: empty vector (YAP experiment)	0.433	–	–
log10 concentration (uM): -1.30103, siRNA knockdown: TEAD1-4 siRNA 1	–	0.514	0.346
log10 concentration (uM): -1.30103, siRNA knockdown: TEAD1-4 siRNA 2	–	0.445	0.421
log10 concentration (uM): -1.30103, siRNA knockdown: YAP/TAZ siRNA 1	–	0.207	0.183
log10 concentration (uM): -1.30103, siRNA knockdown: YAP/TAZ siRNA 2	–	0.212	0.147
log10 concentration (uM): -1.30103, siRNA knockdown: negative control siRNA	–	0.773	0.792
log10 concentration (uM): -2, ectopic expression: YAP S127A	0.727	–	–
log10 concentration (uM): -2, ectopic expression: empty vector (YAP experiment)	0.822	–	–
log10 concentration (uM): -2, siRNA knockdown: TEAD1-4 siRNA 1	–	0.773	0.562
log10 concentration (uM): -2, siRNA knockdown: TEAD1-4 siRNA 2	–	0.606	0.502
log10 concentration (uM): -2, siRNA knockdown: YAP/TAZ siRNA 1	–	0.348	0.323
log10 concentration (uM): -2, siRNA knockdown: YAP/TAZ siRNA 2	–	0.333	0.244
log10 concentration (uM): -2, siRNA knockdown: negative control siRNA	–	0.883	0.886
log10 concentration (uM): -2.30103, ectopic expression: YAP S127A	0.753	–	–
log10 concentration (uM): -2.30103, ectopic expression: empty vector (YAP experiment)	0.822	–	–
log10 concentration (uM): -2.30103, siRNA knockdown: TEAD1-4 siRNA 1	–	0.837	0.672
log10 concentration (uM): -2.30103, siRNA knockdown: TEAD1-4 siRNA 2	–	0.67	0.725
log10 concentration (uM): -2.30103, siRNA knockdown: YAP/TAZ siRNA 1	–	0.471	0.437
log10 concentration (uM): -2.30103, siRNA knockdown: YAP/TAZ siRNA 2	–	0.457	0.37
log10 concentration (uM): -2.30103, siRNA knockdown: negative control siRNA	–	0.909	0.934
log10 concentration (uM): -3, ectopic expression: YAP S127A	0.96	–	–
log10 concentration (uM): -3, ectopic expression: empty vector (YAP experiment)	0.828	–	–
log10 concentration (uM): -3, siRNA knockdown: TEAD1-4 siRNA 1	–	0.939	0.815
log10 concentration (uM): -3, siRNA knockdown: TEAD1-4 siRNA 2	–	0.875	0.893
log10 concentration (uM): -3, siRNA knockdown: YAP/TAZ siRNA 1	–	0.812	0.615
log10 concentration (uM): -3, siRNA knockdown: YAP/TAZ siRNA 2	–	0.688	0.587
log10 concentration (uM): -3, siRNA knockdown: negative control siRNA	–	0.969	1
log10 concentration (uM): -4, ectopic expression: YAP S127A	0.873	–	–
log10 concentration (uM): -4, ectopic expression: empty vector (YAP experiment)	1.01	–	–
log10 concentration (uM): -4, siRNA knockdown: TEAD1-4 siRNA 1	–	1.05	0.98
log10 concentration (uM): -4, siRNA knockdown: TEAD1-4 siRNA 2	–	0.914	0.974
log10 concentration (uM): -4, siRNA knockdown: YAP/TAZ siRNA 1	–	1.09	0.969
log10 concentration (uM): -4, siRNA knockdown: YAP/TAZ siRNA 2	–	1.04	0.928
log10 concentration (uM): -4, siRNA knockdown: negative control siRNA	–	0.955	1.02
